Results taken from US9663486B2, “Selectively substituted quinoline compounds” (EISAI R&D MANAGEMENT CO., LTD., priority 2013, dated 2017).

Tests used:
Human TLR7/8 = test: Human PBMC cell-based assay, TLR7/8 (RNA-Ig), cytokine ELISA; settings: PBMC assay data summary; ligand and analyte not given; read-out: Human PBMCs IC50
Experimental: Human peripheral blood mononuclear cells (PBMC) were isolated from freshly-drawn heparinized (10 USP units/ml, Hospira, Lakeforest, Ill.) healthy donor whole blood by density gradient (Histopaque® 1077, Sigma, Inc., St. Louis, Mo.). Briefly, 25 ml blood was diluted with 15 ml PBS (without Ca^2+, Mg^2+) in a 50 ml conical tube, and 12 ml Histopaque was underlaid using a spinal needle. Tubes were centrifuged for 45 minutes at 1200 rpm (350×g), and PBMC were collected from the buffy coat. Cells were then washed twice in PBS, and red blood cells were lysed by suspension in 5 ml ammonium chloride solution (1× Red Blood Cell Lysis Buffer, eBioscience) for 5 minutes at room temperature. After a final wash in PBS, PBMC were resuspended at a final concentration of 2×10^6/ml in RPMI-1640 media with L-glutamine (Invitrogen) and supplemented with 25 mM HEPES (Mediatech, Inc, Manassas Va.), 10% fetal bovine serum (HyClone, Logan, Utah), and Penicillin-Streptomycin-Glutamine (Mediatech) and plated at 100 ul/well (2×10^5 cells/well) in tissue culture treated 96-well plates (Falcon).
Antagonist compounds solubilized and serial diluted in 100% DMSO were added in triplicate to cells to yield a final concentration of 0.1% DMSO (v/v). Hydroxychloroquine (Acros Organics) solubilized and serial diluted in PBS was added in triplicate to cells. PBMC were incubated with antagonist compounds or HCQ for 30 minutes at 37° C., 5% CO2 before adding various TLR agonist reagents in 100 ul complete media per well as follows (final concentrations indicated): R848 (Resiquimod; GLSynthesis, Worcester, Mass.) at 1 uM for TLR7 and TLR8, Pam3CSK4 (InvivoGen) at 50 ng/ml for TLR1/2, LPS (Sigma) at 10 ng/ml for TLR4, and CpG-2216 (InvivoGen) at 5 ug/ml for TLR9. […] The resulting “RNA-Ig” stimulus was incubated at room temperature for 15-30 minutes before adding to cells. PBMC were incubated with the various TLR agonists for 20 hours at 37° C., 5% CO2. Cell culture supernatants were collected, and levels of various human cytokines were assessed as indicated by standard ELISA procedure according to the manufacturer's recommended protocol (BD Biosciences, Inc., San Diego, Calif.).

mouse TLR7 = molecular target: T1, mouse TLR7 (Mus musculus, UniProt P58681); test: Short-term in vivo (STIV) assay, plasma IL-6 after R848; settings: plasma IL-6 after R848 s.c., BALB/c mice
T1 construct: tissue Jackson Labs; host or cells: live female BALB/c mice
T1 sequence (P58681 27-1050): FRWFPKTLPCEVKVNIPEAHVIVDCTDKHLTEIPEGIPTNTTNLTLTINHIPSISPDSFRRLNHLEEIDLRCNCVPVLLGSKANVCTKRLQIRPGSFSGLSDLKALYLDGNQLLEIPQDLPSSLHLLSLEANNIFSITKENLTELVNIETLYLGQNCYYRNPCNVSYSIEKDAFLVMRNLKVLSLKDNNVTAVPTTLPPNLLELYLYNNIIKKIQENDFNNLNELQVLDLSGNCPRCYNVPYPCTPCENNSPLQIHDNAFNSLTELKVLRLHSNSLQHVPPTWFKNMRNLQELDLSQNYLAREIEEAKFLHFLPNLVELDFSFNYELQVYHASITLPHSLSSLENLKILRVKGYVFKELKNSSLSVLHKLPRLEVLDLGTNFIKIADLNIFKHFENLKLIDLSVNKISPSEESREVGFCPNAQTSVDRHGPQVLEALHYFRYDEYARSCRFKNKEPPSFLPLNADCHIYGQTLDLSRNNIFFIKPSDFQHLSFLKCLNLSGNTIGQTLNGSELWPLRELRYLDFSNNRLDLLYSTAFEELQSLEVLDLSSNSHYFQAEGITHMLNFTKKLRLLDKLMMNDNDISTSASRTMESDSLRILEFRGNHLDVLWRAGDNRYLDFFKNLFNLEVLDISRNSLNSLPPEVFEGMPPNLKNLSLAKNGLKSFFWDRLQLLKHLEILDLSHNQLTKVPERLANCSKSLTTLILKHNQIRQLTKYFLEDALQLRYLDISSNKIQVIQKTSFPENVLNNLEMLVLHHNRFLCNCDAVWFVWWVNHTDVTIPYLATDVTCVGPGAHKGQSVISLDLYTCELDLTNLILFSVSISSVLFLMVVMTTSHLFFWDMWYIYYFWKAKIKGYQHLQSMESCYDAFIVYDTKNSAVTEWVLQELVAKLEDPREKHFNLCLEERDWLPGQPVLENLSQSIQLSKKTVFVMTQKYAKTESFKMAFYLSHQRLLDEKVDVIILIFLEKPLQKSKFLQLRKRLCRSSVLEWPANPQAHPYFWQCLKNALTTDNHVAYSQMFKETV
Experimental: To assess compound potency in vivo against mouse TLR7, a short-term in vivo (STIV) assay was utilized. Briefly, mice were orally dosed with compounds and at various time points afterwards were injected subcutaneously with agonist R848 to stimulate TLR7. The plasma IL-6 level following R848 stimulation was then measured by ELISA to assess compound potency and duration-of-action. […] Therefore, the activity of compounds in the STIV assay can be confidently attributed to their modulation of the TLR7 pathway.
Six to eight week old female BALB/c mice (Jackson Labs, Bar Harbor, Me.) were dosed by oral gavage in 200 ul volume with antagonist compounds formulated in 0.5% aqueous methyl-cellulose (Sigma, St. Louis, Mo.). At various time points afterwards, mice were injected subcutaneously (s.c.) in 100 ul volume with 15 ug R848 (Resiquimod; GLSynthesis, Worcester, Mass.) to stimulate TLR7. Blood plasma was collected by cardiac puncture, and levels of IL-6 at 1.5 hours after TLR7 stimulation were then assessed by standard ELISA procedure according to the manufacturer's recommended protocol (R&D Systems).

[1] = 13 hr after oral dose, 33 mg/kg
[2] = 13 hr after oral dose, 100 mg/kg
[3] = 13 hr after oral dose, 300 mg/kg
[4] = 24 hr after oral dose, 100 mg/kg
[5] = 24 hr after oral dose, 300 mg/kg

SMILES | IC50 (Human TLR7/8) [nM] | further results
C[C@H]1C[C@@H](N(C)C)CN(c2ccc(C#N)c3ncccc23)C1 [ER-889591] | 42 | –
CC1(C)C[C@@H](N)CN(c2ccc(C#N)c3ncccc23)C1 [ER-895386] | 17 | –
CC(=O)NC1CC(C)CN(c2ccc(C#N)c3ncccc23)C1 (stereo not drawn) [ER-896310] | 63 | –
CC1CC(O)CN(c2ccc(C#N)c3ncccc23)C1 (stereo not drawn) [ER-896464] | 6 | –
CN[C@@H]1C[C@H](C)CN(c2ccc(C#N)c3ncccc23)C1 [ER-897184] | 4 | –
CC1CC(NC(=O)CN)CN(c2ccc(C#N)c3ncccc23)C1 (stereo not drawn) [ER-897274] | 7 | –
COCCNC1CC(C)CN(c2ccc(C#N)c3ncccc23)C1 (stereo not drawn) [ER-897275] | 6 | –
CNCC(=O)NC1CC(C)CN(c2ccc(C#N)c3ncccc23)C1 (stereo not drawn) [ER-897608] | 5 | % Suppression vs. Vehicle (mouse TLR7; 6 h after oral dose, 33 mg/kg): 98%; % Suppression vs. Vehicle (mouse TLR7; [1]): 56%; % Suppression vs. Vehicle (mouse TLR7; [2]): 84%; % Suppression vs. Vehicle (mouse TLR7; [3]): 98%; % Suppression vs. Vehicle (mouse TLR7; 24 hr after oral dose, 33 mg/kg): 35%; % Suppression vs. Vehicle (mouse TLR7; [4]): 22%; % Suppression vs. Vehicle (mouse TLR7; [5]): 95%
CC1CC(NC(=O)CO)CN(c2ccc(C#N)c3ncccc23)C1 (stereo not drawn) [ER-897971] | 5 | –
CC1CC(NC(=O)C(O)C(C)C)CN(c2ccc(C#N)c3ncccc23)C1 (stereo not drawn) [ER-897972] | 17 | –
CC1CC(NC(=O)c2cccc(O)c2)CN(c2ccc(C#N)c3ncccc23)C1 (stereo not drawn) [ER-897973] | 11 | –
CC1CC(NC(=O)CS(C)(=O)=O)CN(c2ccc(C#N)c3ncccc23)C1 (stereo not drawn) [ER-897978] | 14 | –
CC1CC(NC(=O)C(N)C(C)C)CN(c2ccc(C#N)c3ncccc23)C1 (stereo not drawn) [ER-897987] | 12 | –
COCC(N)C(=O)NC1CC(C)CN(c2ccc(C#N)c3ncccc23)C1 (stereo not drawn) [ER-897990] | 3 | –
CC(C)CC(N)C(=O)NC1CC(C)CN(c2ccc(C#N)c3ncccc23)C1 (stereo not drawn) [ER-897998] | 2 | –
CC(C)CC(N)C(=O)NC1CC(C)CN(c2ccc(C#N)c3ncccc23)C1 (stereo not drawn) [ER-897999] | 2 | –
CNC(C(=O)NC1CC(C)CN(c2ccc(C#N)c3ncccc23)C1)C(C)C (stereo not drawn) [ER-898334] | 8 | –
CC1CC(NC(=O)C(N)c2ccccc2)CN(c2ccc(C#N)c3ncccc23)C1 (stereo not drawn) [ER-898350] | 20 | –
CC1CC(NC(=O)C(N)Cc2cccnc2)CN(c2ccc(C#N)c3ncccc23)C1 (stereo not drawn) [ER-898360] | 11 | –
CC1CC(NC(=O)C2(C)COC2)CN(c2ccc(C#N)c3ncccc23)C1 (stereo not drawn) [ER-899072] | 8 | % Suppression vs. Vehicle (mouse TLR7; 6 h after oral dose, 100 mg/kg): 94%; % Suppression vs. Vehicle (mouse TLR7; [1]): 34%; % Suppression vs. Vehicle (mouse TLR7; [2]): 72%; % Suppression vs. Vehicle (mouse TLR7; [3]): 100%; % Suppression vs. Vehicle (mouse TLR7; [4]): 0%; % Suppression vs. Vehicle (mouse TLR7; [5]): 78%
C[C@H]1C[C@@H](NC(=O)C2(N)COC2)CN(c2ccc(C#N)c3ncccc23)C1 [ER-899350] | 67 | –
CCOC(=O)CNC1CC(C)CN(c2ccc(C#N)c3ncccc23)C1 (stereo not drawn) [ER-899504] | 81 | –
CCOC(=O)CN(CC(=O)OCC)C1CC(C)CN(c2ccc(C#N)c3ncccc23)C1 (stereo not drawn) [ER-899505] | 127 | –
CC1CC(NC2COC2)CN(c2ccc(C#N)c3ncccc23)C1 (stereo not drawn) [ER-899541] | 15 | % Suppression vs. Vehicle (mouse TLR7; 6 h after oral dose, 100 mg/kg): 97%; % Suppression vs. Vehicle (mouse TLR7; [2]): 92%
CC1CC(NC2CCOC2)CN(c2ccc(C#N)c3ncccc23)C1 (stereo not drawn) [ER-899544] | 5 | % Suppression vs. Vehicle (mouse TLR7; 6 h after oral dose, 100 mg/kg): 97%; % Suppression vs. Vehicle (mouse TLR7; [2]): 94%
C[C@H]1C[C@@H](NCc2ncco2)CN(c2ccc(C#N)c3ncccc23)C1 [ER-899551] | 24 | –
C[C@H]1C[C@@H](NCc2cn(C)cn2)CN(c2ccc(C#N)c3ncccc23)C1 [ER-899552] | 104 | –
C[C@H]1C[C@@H](NS(=O)(=O)CCN)CN(c2ccc(C#N)c3ncccc23)C1 [ER-899669] | 9 | –
C[C@H]1C[C@@H](NS(=O)(=O)CCCN(C)C)CN(c2ccc(C#N)c3ncccc23)C1 [ER-899672] | 3 | % Suppression vs. Vehicle (mouse TLR7; 6 h after oral dose, 100 mg/kg): 89%; % Suppression vs. Vehicle (mouse TLR7; [2]): 83%
